Source: US9012499B2, “Pharmaceutical composition comprising oseltamivir phosphate” (Chugai Seiyaku Kabushiki Kaisha, priority 2006, dated 2015)

Columns and labels:
[1] = Color development of sugars and sugar alcohols mixed with oseltamivir phosphate (Example 1); type: physicochemical; details: nine parts by weight of test sample and one part of oseltamivir phosphate; for Coloring by mixing with sugars and sugar alcohols, rank of color difference ΔE*, 40° C., 75% RH, one month (open): bottle open; for Coloring by mixing with sugars and sugar alcohols, rank of color difference ΔE*, 60° C. for 2 weeks (sealed): sealed bottle
Protocol: Various samples of sugars and sugar alcohols were mixed with oseltamivir phosphate and the color development was confirmed by the following method. Nine parts by weight of a test sample and one part by weight of oseltamivir phosphate were mixed in a mortar, and the mixture was transferred to a No. 1 standard brown glass bottle (volume: 14 ml) and the bottle was tightly sealed by a polyethylene middle stopper and a polypropylene screw cap. The color of the mixture immediately after mixing was measured by a color difference meter. The mixture was kept in the following two conditions: i) 2 weeks in a 60° C. incubator, or ii) one month in a 40° C. incubator at 75% RH while the bottle was open. Thereafter, the color of the mixture was measured. The color difference before and after the storage ΔE*(CIE L*a*b*) was measured. The measurement of color difference was carried out according to JIS Z-8722, based on 0-45° rear spectrophotometric method using a spectrophotometric color difference meter (SE-2000) (Nippon Denshoku Ltd.).
The A, B and C rank in the table represents ΔE*≦2.5, 2.5<ΔE*≦5.0 and ΔE*>5.0, respectively.

[2] = Color change of wet-granulated sugar alcohol/oseltamivir phosphate formulation after storage (Example 2); type: physicochemical; details: 27 g additive + 3 g oseltamivir phosphate, wet granulation with water; 60° C. for 4 weeks under a tight seal
Protocol: Twenty seven grams of a sugar alcohol and 3 g of oseltamivir phosphate were mixed in a mortar, and then kneaded by adding 1 mL of water to carry out the wet granulation. The mixture was dried in a 50° C. constant temperature drying oven for 3 hr to reduce the water content of the formulation to 1% by weight or less. The formulation was kept at 60° C. for 4 weeks under a tight seal and the change of color before and after the storage was measured by a color difference meter.

[3] = Equilibrium water content of sugars and sugar alcohols (DVS-1); type: physicochemical; details: 25° C., relative humidity 70%
Protocol: Sugars and sugar alcohols (excipients) used in the pharmaceutical composition of the present invention have a characteristic that their equilibrium water content is 1% by weight or less at 25° C. and at 70% relative humidity. That is, the equilibrium water content may be obtained by leaving the samples (sugars or sugar alcohols) in the air that has been held in the predetermined condition of 25° C. and 70% relative humidity for a long time, and then by measuring when the water content in the samples become constant.
(1) Method for Measuring Equilibrium Water Content
Equilibrium water content (25° C., relative humidity 70%) of sugars and sugar alcohols can be measured by the method using a DVS-1 (Surface Measurement Systems Ltd.). The condition for measurement is as follows.
Quantity of samples: 50 to 100 mg (intending to scale 75 mg)
Measurement temperature: 25±1° C.
Setting range of relative humidity: 0 to 100% RH
Measurement step of relative humidity: up to 10%
Hold time: If change of the weight is less than 0.02%, the measurement enters next step, but the change is not stable, the step lasts up to 120 min.

[4] = test system: neuraminidase of influenza virus; details: Patent Document 1 (WO1998/007685); cited from earlier work

Compound | Coloring by mixing with sugars and sugar alcohols, rank of color difference ΔE*, 40° C., 75% RH, one month (open) [1] | Coloring by mixing with sugars and sugar alcohols, rank of color difference ΔE*, 60° C. for 2 weeks (sealed) [1] | Color difference ΔE* [2] | Equilibrium water content [3] | Equilibrium water content ([3]; listed as erythritol) | Inhibitory activity against neuraminidase of influenza virus [4]
OC[C@H]1O[C@H](O[C@H]2[C@H](O)[C@@H](O)C(O)O[C@@H]2CO)[C@H](O)[C@@H](O)[C@@H]1O (mixture of isomers) [Maltose] | C (ΔE*>5.0) | C (ΔE*>5.0) |  |  |  | 
OC[C@@H](O)[C@@H](O)[C@H](O)[C@H](O)CO [D-Mannitol] | A (ΔE*≦2.5) | A (ΔE*≦2.5) | 3.4 |  |  | 
OC[C@@H](O)[C@@H](O)[C@H](O)[C@@H](O)CO [D-sorbitol 1, D-sorbitol] |  |  | 14.6 |  |  | 
OC[C@@H](O)[C@@H](O)[C@H](O)[C@@H](O)CO [D-sorbitol 2, D-sorbitol] |  |  | 11.2 |  |  | 
OC[C@@H](O)[C@@H](O)[C@H](O)[C@@H](O)CO [D-sorbitol] | C (ΔE*>5.0) | C (ΔE*>5.0) |  | 1.7% |  | 
OC[C@@H](O)[C@@H](O)CO [Erythritol] | B (2.5<ΔE*≦5.0) | A (ΔE*≦2.5) | 4.7 | *Equilibrium water content (25° C., relative humidity 70%) is 0.1%, the contents of glucose and mannose as impurities are <0.001% and 0.001%, respectively. | 0.1% | 
CCOC(=O)C1=C[C@@H](OC(CC)CC)[C@H](NC(C)=O)[C@@H](N)C1.O=P(O)(O)O [Oseltamivir phosphate, (−)-ethyl (3R,4R,5S)-4-acetamido-5-amino-3-(1-ethylpropoxy)-cyclohex-1-ene-1-carboxylate monophosphate] | A (ΔE*≦2.5) | A (ΔE*≦2.5) |  |  |  | potent inhibitory activity
OC[C@H]1O[C@@](CO)(O[C@H]2O[C@H](CO)[C@@H](O)[C@H](O)[C@H]2O)[C@@H](O)[C@@H]1O [Sucrose] | B (2.5<ΔE*≦5.0) | A (ΔE*≦2.5) |  |  |  | 
OC[C@@H](O)[C@H](O)[C@@H](O)CO [Xylitol] | C (ΔE*>5.0) | B (2.5<ΔE*≦5.0) |  |  |  | 
